Test results reported in PubChem BioAssay (NCI).
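Test compounds were applied to cells in 96-well plates for 48 hours at 5 doses. GI50 is the concentration that inhibits growth by half. TGI: concentration producing complete growth inhibition.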

Assays:
Experiment in all cases: DTP human tumour cell line panel, 48 h
[1] = test system: SF-539 CNS
[2] = test system: OVCAR-8 ovarian
[3] = test system: SR leukemia
[4] = test system: NCI-H522 lung
[5] = test system: HCT-15 colon
[6] = test system: CCRF-CEM leukemia
[7] = test system: K-562 leukemia
[8] = test system: RXF 393 renal
[9] = test system: PC-3 prostate
[10] = test system: T-47D breast

O=C(O)c1ccc([N+](=O)[O-])c2c(=O)c3ccccc3[nH]c12
TGI [1]: > 100 µM
TGI [2]: > 100 µM
TGI [3]: > 100 µM
TGI [4]: > 100 µM
TGI [5]: > 100 µM
TGI [6]: > 100 µM
TGI [7]: > 100 µM
TGI [8]: > 100 µM

c1cncc(C(Nc2cccc3cccnc23)Nc2cccc3cccnc23)c1
TGI [1]: > 100 µM
TGI [2]: > 100 µM
TGI [4]: > 100 µM
TGI [9]: > 100 µM
TGI [5]: > 100 µM
TGI [6]: > 100 µM
TGI [7]: > 100 µM
TGI [10]: > 100 µM
TGI [8]: > 100 µM

O=C(N/N=C/c1cc(Br)cc(Br)c1[O-])c1ccccc1O.O=C(N/N=C/c1cc(Br)cc(Br)c1[O-])c1ccccc1O.[Mn+2]
TGI [1]: 5.56 µM
TGI [2]: 14.3 µM
TGI [5]: 19.9 µM
GI50 [6]: 0.263 µM
TGI [6]: 6.42 µM
GI50 [7]: 1.66 µM
TGI [7]: 12.1 µM
TGI [8]: 28.4 µM

Cc1nc(NC(=S)Nc2ccc(F)cc2)sc1C(=O)NNC(=S)Nc1ccc(F)cc1
GI50 [1]: 13 µM
TGI [1]: 26.2 µM
GI50 [2]: 16 µM
TGI [2]: > 100 µM
GI50 [4]: 21.1 µM
TGI [4]: > 100 µM
GI50 [9]: 4.38 µM
TGI [9]: 80.7 µM
GI50 [6]: 2.56 µM
TGI [6]: 15.7 µM
GI50 [7]: 3.91 µM
TGI [7]: > 100 µM
GI50 [10]: 2.59 µM
TGI [10]: 20.7 µM

CC(=O)O[C@@H]1CC(C)C2CC2C2=C(C(O)OC2O)[C@@H]1C(C)CCC=C(C)C (stereo not given in full)
TGI [1]: 34.2 µM
TGI [2]: 73 µM
TGI [4]: 31.5 µM
TGI [5]: 49.5 µM
TGI [6]: 51.9 µM
TGI [7]: 66.9 µM
TGI [8]: 34.8 µM

COC1=C(C(=O)OC(C)(C)C)[C@]2(C)C(C(=O)OC(C)(C)C)C(OC)=C(C(=O)OC(C)(C)C)[C@]2(C)C1C(=O)OC(C)(C)C (stereo not given in full)
TGI [1]: > 100 µM
TGI [2]: > 100 µM
TGI [3]: > 100 µM
TGI [4]: > 100 µM
TGI [5]: > 100 µM
TGI [6]: > 100 µM
TGI [7]: > 100 µM
TGI [8]: > 100 µM

O[C@]12CCCC[C@H]1CCC2
TGI [1]: > 100 µM
TGI [2]: > 100 µM
TGI [4]: > 100 µM
TGI [5]: > 100 µM
TGI [6]: > 100 µM
TGI [7]: > 100 µM
TGI [8]: > 100 µM

N#CC1(c2nc3ccccc3o2)C(=O)C(=O)N(c2ccc(Cl)c(Cl)c2)C(=O)C1=O
TGI [2]: > 100 µM
TGI [4]: > 100 µM
TGI [5]: > 100 µM
TGI [6]: > 100 µM
TGI [7]: > 100 µM
TGI [8]: > 100 µM

CN(C)CCCn1c2c3ccccc3ccc2c2oc(=O)c3ccccc3c21
TGI [1]: 7.82 µM
TGI [2]: 8.75 µM
TGI [3]: 5.56 µM
TGI [4]: 10.6 µM
TGI [5]: 4.34 µM
TGI [6]: > 21.3 µM
TGI [10]: > 100 µM
TGI [8]: 2.75 µM

COC1CC(OS(=O)(=O)c2ccc(C)cc2)C(OS(=O)(=O)c2ccc(C)cc2)C(COS(=O)(=O)c2ccc(C)cc2)O1 (stereo not given)
TGI [1]: 6.65 µM
TGI [2]: 6.06 µM
TGI [3]: 33.6 µM
TGI [4]: 16 µM
TGI [5]: 19 µM
TGI [6]: > 100 µM
TGI [7]: > 100 µM
TGI [8]: 4.64 µM

C=C(CN1CCN(c2ccccc2F)CC1)c1ccc(C(=O)Nc2ccccc2N)cc1
GI50 [1]: 1.55 µM
TGI [1]: 6.31 µM
GI50 [2]: 1.92 µM
TGI [2]: > 100 µM
GI50 [4]: 1.48 µM
TGI [4]: 4.41 µM
GI50 [9]: 1.21 µM
TGI [9]: 4.01 µM
GI50 [5]: 0.737 µM
TGI [5]: > 100 µM
GI50 [7]: 0.986 µM
TGI [7]: > 100 µM
GI50 [10]: 3.84 µM
TGI [10]: > 100 µM
GI50 [8]: 0.702 µM
TGI [8]: 7.08 µM

O=C1NC2(O)c3ccccc3C(=O)C2(O)N1c1ccccc1 (stereo not given)
TGI [1]: > 100 µM
TGI [2]: > 100 µM
TGI [3]: > 100 µM
TGI [4]: > 100 µM
TGI [5]: > 100 µM
TGI [6]: > 100 µM
TGI [7]: > 100 µM

COc1ccc(C(=O)/C=C/c2cc(C(=O)c3cc(OC)c(OC)c(OC)c3)ccc2OC)cc1
GI50 [2]: 4.61 µM
TGI [2]: > 100 µM
GI50 [7]: 2.86 µM
TGI [7]: > 100 µM
GI50 [8]: 14.7 µM
TGI [8]: > 100 µM

CC1OC(OC2C(Oc3cc(O)c4c(=O)cc(-c5ccc(O)cc5)oc4c3)OC(CO)C(O)C2O)C(O)C(O)C1O (stereo not given)
TGI [1]: > 100 µM
TGI [2]: > 100 µM
TGI [4]: > 100 µM
TGI [5]: > 100 µM
TGI [6]: > 100 µM
TGI [7]: > 100 µM

Cc1c(C(=O)CC(=O)C(=O)Nc2cccc(C(F)(F)F)c2)[n+](=O)c2ccccc2n1[O-]
TGI [1]: 8.58 µM
TGI [2]: 6.34 µM
TGI [3]: 8.82 µM
TGI [4]: 5.5 µM
TGI [5]: 10.3 µM
TGI [6]: 7.24 µM
TGI [7]: 14.1 µM
TGI [8]: 39.5 µM

Cc1nc(Nc2ccc(F)c(Cl)c2)sc1C(=O)O
GI50 [1]: 1.58 µM
TGI [1]: 3.07 µM
GI50 [2]: 2.14 µM
TGI [2]: 4.82 µM
GI50 [4]: 1.1 µM
TGI [4]: 3.17 µM
GI50 [9]: 1.75 µM
TGI [9]: 4.8 µM
GI50 [6]: 3.01 µM
TGI [6]: > 100 µM
GI50 [7]: 2.65 µM
TGI [7]: > 100 µM
GI50 [8]: 1.71 µM
TGI [8]: 3.94 µM

COc1ccc(/C=C2\CNC/C(=C\c3ccc(OC)cc3)C2=O)cc1
TGI [1]: 41.6 µM
TGI [2]: 35.2 µM
TGI [3]: > 100 µM
TGI [5]: > 100 µM
TGI [6]: 44.8 µM
TGI [7]: 65.2 µM
TGI [8]: 53.8 µM

Cc1cc2c(c(C#N)c1C)NC(=O)C(CC(=O)O)C2=O (stereo not given)
TGI [1]: > 100 µM
TGI [2]: > 100 µM
TGI [5]: > 100 µM
TGI [6]: > 100 µM
TGI [7]: > 100 µM
TGI [8]: > 100 µM

Cc1ccc(C2=Nc3ccccc3NC(=O)C2)cc1
TGI [1]: > 100 µM
TGI [2]: > 100 µM
TGI [3]: > 100 µM
TGI [4]: > 100 µM
TGI [5]: > 100 µM
TGI [6]: > 100 µM
TGI [7]: > 100 µM
TGI [8]: > 100 µM

C=CCN=C1N=C(CC(=O)OCC)CS1
TGI [1]: > 100 µM
TGI [2]: > 100 µM
TGI [4]: > 100 µM
TGI [5]: > 100 µM
TGI [6]: > 100 µM
TGI [7]: > 100 µM
TGI [8]: > 100 µM

Cc1cc(S(=O)(=O)NC#N)c(S/C(=N\Nc2ccc([N+](=O)[O-])cc2)c2ccccc2)cc1Cl
GI50 [2]: 16.8 µM
TGI [2]: 42.8 µM
GI50 [4]: 14.6 µM
TGI [4]: 32.6 µM
GI50 [9]: 21.5 µM
TGI [9]: 57.1 µM
GI50 [6]: 20.2 µM
TGI [6]: 51.5 µM
GI50 [7]: 15.2 µM
TGI [7]: 42.9 µM
GI50 [10]: > 100 µM
TGI [10]: > 100 µM
GI50 [8]: 23.4 µM
TGI [8]: 48.9 µM

C#CC[C@H](c1nc2cc(Cl)ccc2c(=O)n1Nc1ccccc1)N(CCCN)C(=O)c1cccc(Cl)c1F
GI50 [1]: 0.183 µM
TGI [1]: 0.65 µM
GI50 [2]: 0.511 µM
TGI [2]: 1.98 µM
GI50 [4]: 0.0898 µM
TGI [4]: 0.935 µM
GI50 [9]: 0.196 µM
TGI [9]: 3.16 µM
GI50 [5]: 2.15 µM
TGI [5]: 5.68 µM
GI50 [6]: 0.134 µM
TGI [6]: 1.91 µM
GI50 [7]: 0.0968 µM
TGI [7]: 1.85 µM
GI50 [10]: 0.484 µM
TGI [10]: 1.98 µM
GI50 [8]: 0.284 µM
TGI [8]: 1.37 µM
